What was measured:
[1] = target: CYP2D6 (P450 Isozyme 2D6) (Homo sapiens, UniProt P10635); test: Bufuralol hydroxylase activity in human microsome preparations; details: human
[2] = test system: P450 Isozyme 2B; test: Lauric acid 11-hydroxylase activity in human microsome preparations; details: test substance at 100 μM, human microsomes
[3] = target: P450 Isozyme 2C19 (Homo sapiens, UniProt P33261); test: Mephenytoin hydroxylase activity in human microsome preparations; details: test substance at 100 μM, human microsomes
P450 Isozyme 2C19, sequence (P33261 whole entry): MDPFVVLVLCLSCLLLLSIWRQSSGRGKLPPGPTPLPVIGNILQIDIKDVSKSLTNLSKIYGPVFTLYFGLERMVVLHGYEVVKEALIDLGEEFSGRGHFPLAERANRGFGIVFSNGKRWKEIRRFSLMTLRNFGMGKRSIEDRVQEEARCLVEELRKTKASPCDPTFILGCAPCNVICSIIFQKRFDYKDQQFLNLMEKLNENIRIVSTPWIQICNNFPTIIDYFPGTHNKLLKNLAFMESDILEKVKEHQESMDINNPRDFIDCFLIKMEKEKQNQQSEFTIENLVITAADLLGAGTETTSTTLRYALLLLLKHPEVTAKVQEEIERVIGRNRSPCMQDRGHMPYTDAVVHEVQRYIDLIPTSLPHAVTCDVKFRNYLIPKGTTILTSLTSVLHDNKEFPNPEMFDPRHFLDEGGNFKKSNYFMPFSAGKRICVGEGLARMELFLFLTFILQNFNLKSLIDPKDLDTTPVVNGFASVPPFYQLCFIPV

[4] = target: P450 Isozyme 2D6 (Homo sapiens, UniProt P10635); test: Bufuralol hydroxylase activity in human microsome preparations; details: test substance at 100 μM, human microsomes
P450 Isozyme 2D6, sequence (P10635 whole entry): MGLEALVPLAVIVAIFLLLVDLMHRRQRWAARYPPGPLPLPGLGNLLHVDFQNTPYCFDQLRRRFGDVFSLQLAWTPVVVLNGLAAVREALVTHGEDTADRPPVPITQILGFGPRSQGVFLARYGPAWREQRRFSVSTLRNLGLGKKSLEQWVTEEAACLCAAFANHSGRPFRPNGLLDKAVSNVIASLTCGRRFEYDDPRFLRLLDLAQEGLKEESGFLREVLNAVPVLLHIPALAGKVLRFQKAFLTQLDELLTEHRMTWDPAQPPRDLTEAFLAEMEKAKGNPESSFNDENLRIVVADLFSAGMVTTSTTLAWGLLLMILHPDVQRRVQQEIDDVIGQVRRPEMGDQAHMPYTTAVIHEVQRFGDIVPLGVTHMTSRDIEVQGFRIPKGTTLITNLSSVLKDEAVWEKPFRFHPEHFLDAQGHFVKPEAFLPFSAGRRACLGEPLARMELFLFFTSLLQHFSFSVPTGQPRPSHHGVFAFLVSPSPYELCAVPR

[5] = test system: CYP2B (P450 Isozyme 2B); test: Lauric acid 11-hydroxylase activity in human microsome preparations; details: human, human microsome preparations, probe lauric acid
[6] = target: CYP2C19 (P450 Isozyme 2C19) (Homo sapiens, UniProt P33261); test: Mephenytoin hydroxylase activity in human microsome preparations; details: human, human microsome preparations, probe mephenytoin
CYP2C19 (P450 Isozyme 2C19), sequence (P33261 whole entry): as the sequence (P33261 whole entry) above

[7] = target: CYP2C9 (P450 Isozyme 2C9) (Homo sapiens, UniProt P11712); test: Tolbutamide hydroxylase activity in human microsome preparations; details: microsomes
CYP2C9 (P450 Isozyme 2C9), sequence (P11712 whole entry): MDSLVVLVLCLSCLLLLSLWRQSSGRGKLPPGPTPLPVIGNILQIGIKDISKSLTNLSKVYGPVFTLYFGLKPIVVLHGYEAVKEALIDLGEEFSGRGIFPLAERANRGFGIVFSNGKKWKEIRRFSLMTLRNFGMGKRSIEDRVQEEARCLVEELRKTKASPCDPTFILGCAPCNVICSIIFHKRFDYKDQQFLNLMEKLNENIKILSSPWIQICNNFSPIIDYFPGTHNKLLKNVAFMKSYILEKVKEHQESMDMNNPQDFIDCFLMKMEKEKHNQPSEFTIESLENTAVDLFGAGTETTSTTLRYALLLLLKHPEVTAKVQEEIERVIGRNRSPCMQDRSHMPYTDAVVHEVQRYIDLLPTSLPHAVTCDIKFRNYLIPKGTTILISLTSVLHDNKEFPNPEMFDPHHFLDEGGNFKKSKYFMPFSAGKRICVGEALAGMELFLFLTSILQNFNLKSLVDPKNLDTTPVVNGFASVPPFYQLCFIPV

[8] = test system: rats; details: 10 mg/kg, given 10 minutes following methylphenidate, within 15 to 25 minutes; cited from earlier work
[9] = test system: mouse liver; test: Toxicity in the mouse liver; assay type: in vivo; details: compared with racemic methylphenidate
Excerpt: The invention is thus of particular utility in that proportion of the population in which the relevant enzymes have reduced efficiency, or that are receiving the cross-reacting drugs, e.g SSRIs, in therapy of, say, anxiety or depression.

CYP2D6 (P450 Isozyme 2D6), sequence (P10635 whole entry): as the sequence (P10635 whole entry) above

C=C[C@H]1C[N@@]2CC[C@H]1C[C@@H]2[C@@H](O)c1ccnc2ccc(OC)cc12 [Quinidine]
inhibition at 10 µM ([1]; human microsome preparations, probe bufuralol): > 90%

COC(=O)[C@@H](c1ccccc1)[C@@H]1CCCCN1 [ltmp]
% Inhibition of Enzyme Activity (Lauric acid 11-hydroxylase, 2B) [2]: <20% | % Inhibition of Enzyme Activity (Mephenytoin hydroxylase, 2C19) [3]: 33% | % Inhibition of Enzyme Activity (Bufuralol hydroxylase, 2D6) [4]: 41%

COC(=O)C(c1ccccc1)C1CCCCN1 (racemic) [Racemic Methylphenidate, methylphenidate]
inhibition at 100 µM [5]: < 15% | inhibition at 100 µM [6]: 44% | inhibition at 100 µM [7]: 19% | inhibition at 100 µM ([1]; microsomes): 65%

NCC(CC(=O)O)c1ccc(Cl)cc1 (stereo not shown) [Baclofen]
block of methylphenidate-enhanced activity and stereotypics [8]: uniform block

COC(=O)[C@H](c1ccccc1)[C@H]1CCCCN1 [dtmp, d-threo-methylphenidate]
% Inhibition of Enzyme Activity (Lauric acid 11-hydroxylase, 2B) [2]: <20% | % Inhibition of Enzyme Activity (Mephenytoin hydroxylase, 2C19) [3]: 31% | toxicity in the mouse liver [9]: less toxicity in the mouse liver than racemic methylphenidate | % Inhibition of Enzyme Activity (Bufuralol hydroxylase, 2D6) [4]: 64%
